Measurements published in patent publication US7273856B2, “Linear basic compounds having NK-2 antagonist activity and formulations thereof” (Menarini Ricerche S.P.A., priority 2001, dated 2007).
Where a name gives a salt, the structure may show the parent alone.

These compounds were tested against T1, human NK-2 receptor (Homo sapiens, UniProt P21452) (assay: binding test, affinity for the human NK-2 receptor, competition with [125I]NKA on transfected CHO cell membranes). Conditions: not given.
T1 construct: expressed in transfected cells; host or cells: CHO (Chinese hamster ovary) cells, membranes
T1 sequence (P21452 1-398): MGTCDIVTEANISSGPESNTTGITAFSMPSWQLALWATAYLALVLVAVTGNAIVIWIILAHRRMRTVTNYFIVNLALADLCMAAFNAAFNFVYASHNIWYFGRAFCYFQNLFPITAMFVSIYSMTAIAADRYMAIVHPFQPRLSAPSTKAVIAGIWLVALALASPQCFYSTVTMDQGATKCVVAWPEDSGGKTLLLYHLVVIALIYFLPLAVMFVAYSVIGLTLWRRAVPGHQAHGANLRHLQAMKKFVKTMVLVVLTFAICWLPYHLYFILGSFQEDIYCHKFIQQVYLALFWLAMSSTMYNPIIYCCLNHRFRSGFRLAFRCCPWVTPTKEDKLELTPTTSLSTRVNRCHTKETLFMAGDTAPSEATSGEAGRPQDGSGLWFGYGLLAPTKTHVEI
Protocol: The evaluation of the antagonist activity on NK-2 receptors has been assessed by binding and functional tests according to that already described in literature in relation to NK-2 antagonists.
The test substances have been tested within a concentration range from 0.01 nM to 10 nM. At the end of the incubation time (30 min, 20° C.) the samples have been filtered and radioactivity has been determined using a gamma-counter.

Q: How did the pKi turn out when `N[C@H]1CCCC[C@@H]1NC(=O)[C@@H]1CC[C@H](NC(=O)[C@@H](Cc2ccccc2)NC(=O)C2(NC(=O)c3cc4ccccc4o3)CCCC2)C1.O=C(O)C(F)(F)F` [Example 6] was run?
A: 9.7

Same assay, conditions: CHO cell membranes transfected with NK-2 receptor of human ileum; [125I]NKA 100 pM; 30 min, 20° C.

Q: With `O=C(NC1(C(=O)N[C@H](Cc2ccccc2)C(=O)NCC2CCN(CC3CCOCC3)CC2)CCCC1)c1ccc2cc(Br)ccc2c1` [Example 72, 6-Bromo-naphthalene-2-carboxylic acid [1-(2-phenyl-1(R)-{[-(tetrahydro-pyran-4-ylmethyl)-piperidin-4-ylmethyl]-carbamoyl}-ethylcarbamoyl)-cyclopentyl]-amide] as the compound, how does the pKi read?
A: 10.0

Q: How did the Ki turn out when `N[C@@H]1CCCC[C@@H]1NC(=O)C1CCCC(NC(=O)[C@@H](Cc2ccccc2)NC(=O)C2(NC(=O)c3cc4ccccc4s3)CCCC2)C1` (stereo partly drawn) [Example 30, acid-3-cis-N^γ{N^α[N^α(benzo[b]thiophen-2-ylcarbonyl)-1-aminocyclopentane-1-carboxy]-D-phenylalanil}aminocyclohexane-1-carboxylic-N-[(1S,2R)-aminocyclohexyl]amide] was run?
A: 0.1 nM

Q: For `C[C@@H]1CN(C(=O)CCNC(=O)[C@@H](Cc2ccccc2)NC(=O)C2(NC(=O)c3cc4ccccc4s3)CCCC2)C[C@H](C)N1` [Example 56, Benzo[b]thiophene-2-carboxylic acid (1-{1(R)-[3-(3,5-cis-dimethylpiperazin-1-yl)-3-oxo-propylcarbamoyl]-2-phenyl-ethylcarbamoyl}-cyclopentyl)-amide TFA salt], which Ki is on record?
A: 1.58 nM

Q: With `Cn1c(C(=O)NC2(C(=O)N[C@H](Cc3ccccc3)C(=O)N[C@H]3CC[C@@H](C(=O)N[C@H]4CCCC[C@@H]4N)C3)CCCC2)cc2ccccc21.O=C(O)C(F)(F)F` [Example 4, N^γ{N^α[N^α(N-(methyl)indol-2-ylcarboxy)-1-aminocyclopentan-1-carboxy]-D-phenylalanyl}-(1R,3S)-3-aminocyclopentane-1-carboxylic-acid-N-((1S,2S)-2-aminocyclohexyl) amide trifluoroacetate salt] as the compound, how does the pKi read?
A: 9.8

Q: `Cc1ccc(C=CC(=O)NC2(C(=O)NC(Cc3ccc(C)cc3)C(=O)NC3CCC(C(=O)NC4CCCCC4N)C3)CCCC2)cc1` [Example 18, N^γ{N^α[N^α(4-(methyl)cynnamoyl)-1-aminocyclopentan-1-carboxy]-R-3[4-methyl)phenyl]alanyl}-(1R,3S)-3-aminocyclopentane-1-carboxylic-acid-N-((1S,2S)-2-aminocyclohexyl)amide hydrochloride salt] was tested. Which Ki did it give?
A: 0.794 nM

Q: For `CN1CCN(C[C@@H]2CC[C@H](NC(=O)[C@@H](Cc3ccccc3)NC(=O)C3(NC(=O)c4cc5ccccc5s4)CCCC3)C2)CC1` [Example 32], which Ki is on record?
A: 1.26 nM

Q: With `CCN1CCC(CNC(=O)[C@@H](Cc2ccccc2)NC(=O)C2(NC(=O)c3ccc4cc(Br)ccc4c3)CCCC2)CC1` [Example 76, 6-Bromo-naphthalene-2-carboxylic acid (1-{1(R)-[(1-ethyl-piperidin-4-ylmethyl)-carbamoyl]-2-phenyl-ethylcarbamoyl}-cyclopentyl)-amide] as the compound, how does the Ki read?
A: 1 nM

Q: Which Ki does the source give for `O=C(NC1(C(=O)N[C@H](Cc2ccccc2)C(=O)NCC2CN(CC3CCOCC3)C2)CCCC1)c1cc2ccccc2s1` [Example 152, Benzo[b]thiophene-2-carboxylic acid [1-(2-phenyl-1(R)-{[1-(tetrahydro-pyran-4-ylmethyl)-azetidin-3-ylmethyl]-carbamoyl}-ethylcarbamoyl)-cyclopentyl]-amide] here?
A: 0.126 nM

Q: `O=C(NC1(C(=O)N[C@H](Cc2ccccc2)C(=O)NCC2CCN(CC3CCSCC3)CC2)CCCC1)c1cc2ccccc2s1` [Example 82, Benzo[b]thiophene-2-carboxylic acid [1-(2-phenyl-1(R)-{[1-(tetrahydro-thiopyran-4-ylmethyl)-piperidin-4-ylmethyl]-carbamoyl}-ethylcarbamoyl)cyclopentyl]-amide] was tested. Which Ki did it give?
A: 0.1 nM

Q: `NC1CCCCC1NC(=O)C1CCC(NC(=O)C(Cc2ccccc2)NC(=O)C2(NC(=O)c3cc4ccccc4s3)CCCCC2)C1` (single isomer, unassigned) [Example 25] was tested. Which Ki did it give?
A: 0.251 nM

Q: How did the Ki turn out when `O=C(NC1(C(=O)N[C@H](Cc2ccccc2)C(=O)NCC2CCN(C3CCSCC3)CC2)CCCC1)c1cc2ccccc2s1` [Example 81, Benzo[b]thiophene-2-carboxylic acid [1-(2-phenyl-1(R)-{[1-(tetrahydro-thiopyran-4-yl)-piperidin-4-ylmethyl]-carbamoyl}-ethylcarbamoyl)-cyclopentyl]-amide TFA salt] was run?
A: 0.0794 nM

Q: `CC(C)(C)c1ccc2oc(C(=O)NC3(C(=O)N[C@H](Cc4ccccc4)C(=O)NCC4CCN(CC5CCOCC5)CC4)CCCC3)cc2c1` [Example 128, 5-tert-Butyl-benzofuran-2-carboxylic acid [1-(2-phenyl-1R-{[1-(tetrahydro-pyran-4-ylmethyl)-piperidin-4-ylmethyl]-carbamoyl}-ethylcarbamoyl)-cyclopentyl]-amide] was tested. Which Ki did it give?
A: 0.126 nM

Q: `O=C(NC1(C(=O)N[C@H](Cc2ccccc2)C(=O)NCCCN2CCOCC2)CCCC1)c1cc2cc(Cl)ccc2o1` [Example 102, 5-Chloro-benzofuran-2-carboxylic acid {1-[1R-(3-morpholin-4-yl-propylcarbamoyl)-2-phenyl-ethylcarbamoyl]-cyclopentyl}-amide] was tested. Which Ki did it give?
A: 0.501 nM

Q: With `O=C(NC1(C(=O)N[C@H](Cc2ccccc2)C(=O)NCCCN2CCC3(CC2)OCCO3)CCCC1)c1cc2ccccc2s1` [Example 55, Benzo[b]thiophene-2-carboxylic acid (1-{1(R)-[3-(1,4-dioxa-8-aza-spiro[4.5]dec-8-yl)-propylcarbamoyl]-2-phenyl-ethylcarbamoyl}-cyclopentyl)-amide TFA salt] as the compound, how does the Ki read?
A: 1 nM

Q: With `O=C(C=Cc1ccc(Cl)c(Cl)c1)NC1(C(=O)N[C@H](Cc2ccccc2)C(=O)NCCCN2CCOCC2)CCCC1` [Example 44, 1-[3-(3,4-dichlorophenyl)-acryloylamino]-cyclopentanecarboxylic acid, [1-(3-morpholin-4-yl-propylcarbamoyl)-2-(R)-phenyl-ethyl]-amide] as the compound, how does the Ki read?
A: 0.794 nM

Q: Which Ki does the source give for `C[C@](Cc1ccccc1)(NC(=O)c1cc2ccccc2s1)C(=O)N[C@H](Cc1ccccc1)C(=O)NCCCN1CCOCC1` [Example 34, N^α[N^α(benzo[b]thiophen-2-ylcarbonyl)-D-α-methylphenylalanil]-D-phenylalanine-N-[3-(morpholin-4-yl)propyl]amide] here?
A: 1.26 nM

Q: `O=C(NC1(C(=O)N[C@H](Cc2ccccc2)C(=O)NCC2CCN(CC3CCOCC3)CC2)CCCC1)c1ccc2ccccc2c1` [Example 151, Naphthalene-2-carboxylic acid [1-(2-phenyl-1R-{[1-(tetrahydro-pyran-4-ylmethyl)-piperidin-4-ylmethyl]-carbamoyl}-ethylcarbamoyl)-cyclopentyl]-amide] was tested. Which Ki did it give?
A: 1.26 nM

Q: Which Ki does the source give for `O=C(NC1(C(=O)N[C@H](Cc2ccccc2)C(=O)NCC2CCN(CC3CCOCC3)CC2)CCCC1)c1cc2cccc(I)c2s1` [Example 132, 7-Iodo-benzo[b]thiophene-2-carboxylic acid [1-(2-phenyl-1R-{[1-(tetrahydro-pyran 4-ylmethyl)-piperidin-4-ylmethyl]-carbamoyl}-ethylcarbamoyl)-cyclopentyl]-amide] here?
A: 0.0316 nM

Q: For `Cn1c(C(=O)NC2(C(=O)N[C@H](Cc3ccccc3)C(=O)NCCCN3CCOCC3)CCCC2)cc2ccc(Cl)cc21` [Example 111, 6-Chloro-1-methyl-1H-indole-2-carboxylic acid {1-[1R-(3-morpholin-4-yl-propylcarbamoyl)-2-phenyl-ethylcarbamoyl]-cyclopentyl}-amide], which Ki is on record?
A: 0.2 nM

Q: Which pKi does the source give for `N[C@H]1CCCC[C@@H]1NC(=O)[C@@H]1CC[C@H](NC(=O)[C@@H](Cc2ccccc2)NC(=O)C2(NC(=O)c3ccc(-c4ccccc4)cc3)CCCC2)C1.O=C(O)C(F)(F)F` [Example 3, N^γ{N^α[N^α(biphen-4-ylcarboxy)-1-aminocyclopentan-1-carboxy]-D-phenylalanyl}-(1R,3S)-3-aminocyclopentane-1-carboxylic-acid-N-((1S,2S)-2-aminocyclohexyl)amide trifluoroacetate salt] here?
A: 9.6

Q: How did the Ki turn out when `CC1CN(CCCNC(=O)[C@@H](Cc2ccccc2)NC(=O)C2(NC(=O)c3cc4ccccc4s3)CCCCC2)CC(C)O1` (stereo partly drawn) [Example 48, Benzo[b]thiophene-2-carboxylic acid (1-{1-[3-(2,6-dimethyl-morpholin-4-yl)-propylcarbamoyl]-2-(R)-phenyl-ethylcarbamoyl}-cyclohexyl)-amide] was run?
A: 0.398 nM

Q: For `O=C(N[C@]1(C(=O)N[C@H](Cc2ccccc2)C(=O)NCCCN2CCOCC2)CCc2ccccc21)c1cc2ccccc2s1` [Example 23, N^α[N^α(benzo[b]thiophen-2-ylcarbonyl)-1-(R)-amino-indan-1-carboxy]-D-phenylalanine-N-[3(morpholin-4-yl)propyl]amide], which Ki is on record?
A: 2 nM

Q: `NCCCCCNC(=O)C1CCCC(NC(=O)[C@@H](Cc2ccccc2)NC(=O)C2(NC(=O)c3cc4ccccc4s3)CCCCC2)C1.O=C(O)C(F)(F)F` (stereo in doubt) [Example 22, N^γ{N^α[N^α(benzo[b]thiophen-2-ylcarbonyl)-1-aminocyclohexan-1-carboxy]-D-phenylalanyl}-3-cis-aminocyclohexan-1-carboxylic-acid-N-(5-aminopentyl)-amide trifluoroacetate salt] was tested. Which pKi did it give?
A: 9.2
